Patent US20240294548A1, “TRICYCLIC SULTAMS AND SULFAMIDES AS ANTITUMOR AGENTS” (PELOTON THERAPEUTICS INC., priority 2021, published 2024)

What was measured:
[1] = target: T1, DCAF15 (DDA1-DDB1ΔB-DCAF15Δpro) (Homo sapiens, UniProt Q66K64, DEL276-383); assay: DCAF15 displacement assay (displacement FRET, probe PT7795); type: binding; details: displacement of PT7795 (300 nM), compound 0.01 to 100 μM, 18 hours incubation; read-out: DCAF15 displacement IC50
T1 construct: made in house; host or cells: Sf9 (Bac-to-Bac baculovirus)
Text: (§1) Proteins used for the assays were as follows: Human DDA1 (UniProt:Q9BW61), DDB1 (UniPro: Q16531), and DCAF15 (UniProt: Q66K64) coding sequences were cloned into pFastBac1 vectors and were co-expressed in Sf9 cells using Bac-to-Bac baculovirus expression system (Thermo Fisher Scientific). The expression construct for DCAF15 includes a N-terminal His6-tag to facilitate the purification.
DCAF15 Displacement Assay (Displacement FRET KD)
Synthesis of the probe PT7795 is described in the article.
Binding of PT7795 to DDA1-DDB1AB-DCAF15Δpro was measured by the FRET signal between europium-labeled anti-His antibody (AD0205, Perkin Elmer) that is associated with His-tagged DCAF15 and ALX647 moiety in PT7795. […] After equilibrating for 2-3 hours at 4° C., the plate was removed from the incubator, briefly spun, then read on a Spark 10 (Tecan) at the excitation/emission wavelength of 340 nm/615 nm and 340 nm/665 nm.
Binding of compounds in this disclosure to DCAF15 was measured in a competition by the displacement of PT7795. The concentration of PT7795 was kept at 300 nM while the concentration of a compound was varied from 0.01 to 100 μM. The incubation time was increased to 18 hours for enhanced signal to noise level.
F=Fmin+(Fmax−Fmin)/(1+10^(logIC50−log[Compound])^n) (Equation 2)
The Kds can then be calculated from IC50s using Equation 3 (Cheng-Prusoff equation).

[2] = target: T2, DCAF15 RBM39 ternary complex (Homo sapiens, UniProt Q14498+Q66K64, DEL276-383); assay: DCAF15 RBM39 complex formation assay (FRET); type: biochemical; details: FRET ratio, 20 nM DDB1DB/DCAF15, 50 nM RBM39 R1R2, overnight at 4° C.; read-out: DCAF15 RBM39 ternary complex EC50
T2 construct: Amino acids 150 to 331 of RBM39 were cloned into pGEX4T3; GST (from the pGEX4T3 vector, own knowledge) followed by a TEV cleavage site (N); made in house; host or cells: Sf9 baculovirus (DDB1ΔB/DCAF15); E. coli (RBM39 R1R2)
T2 sequence (Q66K64 with tags, fused parts or gaps DEL276-383): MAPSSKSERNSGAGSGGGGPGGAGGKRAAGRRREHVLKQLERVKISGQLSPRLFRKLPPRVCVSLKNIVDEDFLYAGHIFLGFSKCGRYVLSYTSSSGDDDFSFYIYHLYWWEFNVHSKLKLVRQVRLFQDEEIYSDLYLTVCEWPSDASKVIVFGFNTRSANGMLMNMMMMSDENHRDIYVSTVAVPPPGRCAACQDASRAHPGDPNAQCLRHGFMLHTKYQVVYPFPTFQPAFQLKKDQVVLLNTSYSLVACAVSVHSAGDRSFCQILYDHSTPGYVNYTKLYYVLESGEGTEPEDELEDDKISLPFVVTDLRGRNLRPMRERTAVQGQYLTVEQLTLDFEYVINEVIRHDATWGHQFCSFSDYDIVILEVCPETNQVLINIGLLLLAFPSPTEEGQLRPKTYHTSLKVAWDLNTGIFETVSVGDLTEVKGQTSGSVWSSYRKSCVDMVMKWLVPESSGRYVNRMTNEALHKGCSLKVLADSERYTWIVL
T2 sequence (Q14498 150-331, stated change not applied): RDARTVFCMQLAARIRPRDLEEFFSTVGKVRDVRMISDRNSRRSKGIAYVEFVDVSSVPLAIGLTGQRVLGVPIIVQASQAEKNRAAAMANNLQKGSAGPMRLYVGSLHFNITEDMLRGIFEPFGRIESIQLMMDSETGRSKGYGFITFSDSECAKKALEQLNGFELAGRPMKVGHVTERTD
Text: as §1
DCAF15 RBM39 Complex Formation Assay
LANCE Eu-W1024 Anti-6×His and SureLight Allophycocyanin-anti-FLAG antibodies were purchased from Perkin Elmer. Human DDB1DB and His-tagged DCAF15 were co-expressed in baculovirus/sf9 system. […] The His-tagged DCAF15 contains six histidine residues directly preceding the DCAF15 sequence without any linker. An RBM39 fragment containing RRM1 and RRM2 was expressed in E. coli.
A compound of the present disclosure in DMSO (2 μL) was transferred to a 384-well assay plate. Compound was added in 14 points, 3-fold serial dilution (1 μM to 0.6 pico molar) in DMSO. […] FRET assay buffer (25 mM HEPES, pH 7.5, 100 mM NaCl, […], 0.5 mM TCEP, 0.005% Tween-20, 0.2 nM Eu-W1024 Anti-6×His, 50 nM SureLight Allophycocyanin-anti-FLAG, 20 nM DDB1DB/DCAF15, 50 nM RBM39 R1R2) was added and the resulting solution was incubated overnight at 4° C. […] Low signal controls containing no compound and high signal controls containing 10 mM indisulam were measured for each plate.
EC50 values were calculated using Dotmatics template equation for 4-parameter fit.
Results are expressed as % formation using the following equation: […]

[3] = system: HCT116 human colorectal carcinoma cells; assay: CellTiter-Glo assay (cell viability); type: cell-based; details: HCT-116, 72 h, HCT116 cells, 3 days, CellTiter-Glo luminescence, read-out: CTG IC50
Experimental: HCT116 human colorectal carcinoma cells were used in these experiments. HCT116 cells were obtained from ATCC. CellTiter-Glo® Luminescent Cell Viability Assay Reagent was obtained from Promega.
About 3,000 cells were seeded into 96-well plate with 100 μL of media (DMEM supplemented with 10% FBS, 100 units penicillin, and […] streptomycin per mL) the day before the experiment. For compound treatment, the master plate was prepared as follows: 100× compound stocks were prepared in a 96-well plate by 1 to 3 serial dilutions of 0.5 mM DMSO stocks. Each master plate contained serial dilution of 8 compounds, including the control compound E7820. […] of 100× compound stock was added to each well of the assay plate to give final concentrations of […]. Each concentration was tested in triplicate. After 3 days, cell viability was determined using CellTiter-Glo Luminescent Cell Viability Assay Reagent following the manufacturer's recommended protocol. Briefly, […] of CellTiter-Glo reagent was added to each well of the assay plate and the contents were mixed for 3 minutes at 600 rpm on a shaker (Thermomixer R). The plate was immediately placed in a plate reader (Synergy 2) and the luminescence signal (0.5 second per well integration time) was determined. IC50 values were calculated using Dotmatics software.

| IC50 [1] | EC50 [2] | IC50 [3] | Structure (SMILES) |
| --- | --- | --- | --- |
| 50500 nM | 1.9 nM | 555 nM | COCC[C@H]1Cc2cc(Cl)c3c(Cl)c[nH]c3c2NS1(=O)=O (single isomer, unassigned) [Compound 29] |
| 2580 nM | 1.3 nM | 184 nM | COCC[C@@H]1Cc2cc(Cl)c3c(Cl)c[nH]c3c2NS1(=O)=O (single isomer, unassigned) [Compound 30] |
| 20000 nM | 11 nM | 789 nM | O=S1(=O)CCc2cc(Cl)c3c(Cl)c[nH]c3c2N1 [Compound 5, 6,7-dichloro-1,3,4,9-tetrahydro-[1,2]thiazino[4,3-g]indole 2,2-dioxide] |
| ≥ 100000 nM | 16.4 nM | 5000 nM | CCCC1Cc2ccc3c(Cl)c[nH]c3c2NS1(=O)=O (stereo not drawn) [Compound 10, 7-chloro-3-propyl-1,3,4,9-tetrahydro-[1,2]thiazino[4,3-g]indole 2,2-dioxide] |
| 9720 nM | 2.8 nM | 1400 nM | O=S1(=O)Nc2c(cc(Cl)c3c(Cl)c[nH]c23)CN1Cc1cccc(Cl)c1 [Compound 11, 6,7-dichloro-3-(3-chlorobenzyl)-1,3,4,9-tetrahydro-[1,2,6] thiadiazino[4,3-g]indole 2,2-dioxide] |
| 1110 nM | 0.7 nM | 125 nM | O=S1(=O)Nc2c(cc(Cl)c3c(Cl)c[nH]c23)CN1Cc1ccc(Cl)nc1 [Compound 12, 6,7-dichloro-3-((6-chloropyridin-3-yl)methyl)-1,3,4,9-tetrahydro-[1,2,6]thiadiazino[4,3-g]indole 2,2-dioxide] |
| 36100 nM | 6.2 nM | 810 nM | O=S1(=O)Nc2c(cc(Cl)c3c(Cl)c[nH]c23)CN1Cc1ccc(Cl)cc1 [Compound 13, 6,7-dichloro-3-(4-chlorobenzyl)-1,3,4,9-tetrahydro-[1,2,6] thiadiazino[4,3-g]indole 2,2-dioxide] |
| 2320 nM | 3.4 nM | 218 nM | O=S1(=O)Nc2c(cc(Cl)c3c(Cl)c[nH]c23)CN1Cc1ccccc1Cl [Compound 14, 6,7-dichloro-3-(2-chlorobenzyl)-1,3,4,9-tetrahydro-[1,2,6] thiadiazino[4,3-g] indole 2,2-dioxide] |
| 14400 nM | 7.7 nM | 726 nM | CN1Cc2cc(Cl)c3c(Cl)c[nH]c3c2NS1(=O)=O [Compound 15, 6,7-dichloro-3-methyl-1,3,4,9-tetrahydro-[1,2,6]thiadiazino [4,3-g]indole 2,2-dioxide] |
| 2680 nM | 0.9 nM | 418 nM | O=S1(=O)Nc2c(cc(Cl)c3c(Cl)c[nH]c23)CN1CCCCF [Compound 18, 6,7-dichloro-3-(4-fluorobutyl)-1,3,4,9-tetrahydro-[1,2,6]thiadiazino[4,3-g]indole 2,2-dioxide] |

More lines, now with the values behind:

| Structure (SMILES) | IC50 [1] | EC50 [2] | IC50 [3] |
| --- | --- | --- | --- |
| COCCC1Cc2cc(Cl)c3c(Cl)c[nH]c3c2NS1(=O)=O (racemic) [Compound 22, 6,7-dichloro-3-(2-methoxyethyl)-1,3,4,9-tetrahydro-[1,2]thiazino[4,3-g]indole 2,2-dioxide] | 12300 nM | 0.7 nM | 234 nM |
| COCCN1Cc2cc(Cl)c3c(Cl)c[nH]c3c2NS1(=O)=O [Compound 1, 6,7-dichloro-3-(2-methoxyethyl)-1,3,4,9-tetrahydro-[1,2,6] thiadiazino[4,3-g]indole 2,2-dioxide] | 3160 nM | 5.5 nM | 475 nM |
| COCCN1Cc2cc(Cl)c3cc[nH]c3c2NS1(=O)=O [Compound 2, 6-chloro-3-(2-methoxyethyl)-1,3,4,9-tetrahydro-[1,2,6] thiadiazino[4,3-g]indole 2,2-dioxide] | 51800 nM | 65.8 nM | 2230 nM |
| O=S1(=O)NCc2cc(Cl)c3c(Cl)c[nH]c3c2N1 [Compound 3, 6,7-dichloro-1,3,4,9-tetrahydro-[1,2,6]thiadiazino[4,3-g]indole 2,2-dioxide] | 27800 nM | 8.1 nM | 1430 nM |
| O=S1(=O)Nc2c(ccc3c(Cl)c[nH]c23)CN1C1CCCCC1 [Compound 4, 7-chloro-3-cyclohexyl-1,3,4,9-tetrahydro-[1,2,6] thiadiazino[4,3-g]indole 2,2-dioxide] | 58100 nM | 16.1 nM | 943 nM |
| O=S1(=O)Nc2c(cc(Cl)c3c(Cl)c[nH]c23)CN1Cc1ccccc1 [Compound 6, 3-benzyl-6,7-dichloro-1,3,4,9-tetrahydro-[1,2,6]thiadiazino[4,3-g]indole 2,2-dioxide] | 5260 nM | 3.1 nM | 608 nM |
| O=S1(=O)Nc2c(cc(Cl)c3c(Cl)c[nH]c23)CN1c1ccccc1 [Compound 7, 6,7-dichloro-3-phenyl-1,3,4,9-tetrahydro-[1,2,6] thiadiazino[4,3-g]indole 2,2-dioxide] | 17400 nM | 8.8 nM | 1310 nM |
| COCCN1Cc2cc(Cl)c3c(C#N)c[nH]c3c2NS1(=O)=O [Compound 8, 6-chloro-3-(2-methoxyethyl)-1,3,4,9-tetrahydro-[1,2,6] thiadiazino[4,3-g]indole7-carbonitrile 2,2-dioxide] | 3340 nM | 6.2 nM | 3160 nM |
| CCCC1=Cc2ccc3c(Cl)c[nH]c3c2NS1(=O)=O [Compound 9, 7-chloro-3-propyl-1,9-dihydro-[1,2]thiazino[4,3-g]indole 2,2-dioxide] | ≥ 100000 nM | 74.7 nM | 5000 nM |
| O=S1(=O)Nc2c(cc(Cl)c3c(Cl)c[nH]c23)CC1Cc1ccccc1 (stereo not drawn) [Compound 16, 3-benzyl-6,7-dichloro-1,3,4,9-tetrahydro-[1,2] thiazino[4,3-g]indole 2,2-dioxide] | 1210 nM | 1 nM | 259 nM |
| O=c1ccc(CN2Cc3cc(Cl)c4c(Cl)c[nH]c4c3NS2(=O)=O)c[nH]1 [Compound 17, 5-((6,7-dichloro-2,2-dioxido-4,9-dihydro-[1,2,6]thiadiazino[4,3-g]indol-3(1H)-yl)methyl)pyridin-2(1H)-one] | 797 nM | 1.8 nM | 916 nM |
| O=S1(=O)Nc2c(cc(Cl)c3c(Cl)c[nH]c23)CN1Cc1ccccn1 [Compound 19, 6,7-dichloro-3-(pyridin-2-ylmethyl)-1,3,4,9-tetrahydro-[1,2,6]thiadiazino [4,3-g]indole 2,2-dioxide] | 531 nM | 1.6 nM | 237 nM |
